Molecular target: T1, ER (Homo sapiens, UniProt P03372)
T1 construct: host or cells: T47D and MCF7 human breast cancer cells
T1 sequence (P03372 1-595): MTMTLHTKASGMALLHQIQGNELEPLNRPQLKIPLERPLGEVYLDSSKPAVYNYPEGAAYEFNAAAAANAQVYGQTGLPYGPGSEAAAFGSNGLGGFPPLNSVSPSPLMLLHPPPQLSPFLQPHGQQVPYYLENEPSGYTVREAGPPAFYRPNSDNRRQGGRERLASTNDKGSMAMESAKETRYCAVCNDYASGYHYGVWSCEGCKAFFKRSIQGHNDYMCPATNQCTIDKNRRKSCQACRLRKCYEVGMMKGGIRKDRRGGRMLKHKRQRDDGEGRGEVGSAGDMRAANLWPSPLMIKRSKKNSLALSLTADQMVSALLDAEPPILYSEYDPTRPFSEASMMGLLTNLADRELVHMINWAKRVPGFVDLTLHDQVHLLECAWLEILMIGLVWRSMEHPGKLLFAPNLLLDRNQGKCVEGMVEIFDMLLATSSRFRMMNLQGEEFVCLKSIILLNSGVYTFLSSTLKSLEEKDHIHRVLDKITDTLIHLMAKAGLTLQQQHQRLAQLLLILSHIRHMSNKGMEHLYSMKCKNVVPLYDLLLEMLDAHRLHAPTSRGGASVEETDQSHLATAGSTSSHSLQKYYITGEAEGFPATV
Assay: ER degradation activity, in-cell western blot analysis in T47D cells
Format: cell-based
Details: 16 hours, Table A does not say which cell line (T47D or MCF7), read-out: Potency (DC50)
Method in brief: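 Read-out is near-infrared fluorescence from an in-cell western, expressed as ER percentage relative to untreated and DMSO controls taken as 100%. T47D breast cancer cells received compound for 16 h in 0.5% DMSO.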

SMILES | DC50 [nM]
C[C@@H]1Cc2c([nH]c3ccccc23)[C@@H](c2c(F)cc(N3CC(C(=O)N4CCC(CN5Cc6cc7c(cc6C5)C(=O)N(C5CCC(=O)NC5=O)C7=O)CC4)C3)cc2F)N1CC(F)F (stereo partly drawn) [E 237, 6-((1-(1-(4-((1R,3R)-2-(2,2-difluoroethyl)-3-methyl-2,3,4,9-tetrahydro-1H-pyrido[3,4-b]indol-1-yl)-3,5-difluorophenyl)azetidine-3-carbonyl)piperidin-4-yl)methyl)-2-(2,6-dioxopiperidin-3-yl)-6,7-dihydropyrrolo[3,4-f]isoindole-1,3(2H,5H)-dione] | > 100
C[C@@H]1Cc2c([nH]c3ccccc23)[C@@H](c2c(F)cc(N3CCC(CN4CCC(C(=O)N5Cc6cc7c(cc6C5)C(=O)N(C5CCC(=O)NC5=O)C7=O)CC4)CC3)cc2F)N1CC(F)F (stereo partly drawn) [E 238, 6-(1-((1-(4-((1R,3R)-2-(2,2-difluoroethyl)-3-methyl-2,3,4,9-tetrahydro-1H-pyrido[3,4-b]indol-1-yl)-3,5-difluorophenyl)piperidin-4-yl)methyl)piperidine-4-carbonyl)-2-(2,6-dioxopiperidin-3-yl)-6,7-dihydropyrrolo[3,4-f]isoindole-1,3(2H,5H)-dione] | > 100
C[C@@H]1Cc2c([nH]c3ccccc23)[C@@H](c2c(F)cc(N3CCC(CN4CC(C(=O)N5Cc6cc7c(cc6C5)C(=O)N(C5CCC(=O)NC5=O)C7=O)C4)CC3)cc2F)N1CC(F)F (stereo partly drawn) [E 239, 6-(1-((1-(4-((1R,3R)-2-(2,2-difluoroethyl)-3-methyl-2,3,4,9-tetrahydro-1H-pyrido[3,4-b]indol-1-yl)-3,5-difluorophenyl)piperidin-4-yl)methyl)azetidine-3-carbonyl)-2-(2,6-dioxopiperidin-3-yl)-6,7-dihydropyrrolo[3,4-f]isoindole-1,3(2H,5H)-dione] | > 100
O=C1CCC(N2C(=O)c3cc4c(cc3C2=O)CN(C2CCN(C(=O)C3CCN(c5ccc([C@@H]6c7ccc(O)cc7CC[C@@H]6c6ccccc6)cc5)CC3)CC2)C4)C(=O)N1 (stereo partly drawn) [E 240, 2-(2,6-dioxopiperidin-3-yl)-6-(1-(1-(4-((1R,2S)-6-hydroxy-2-phenyl-1,2,3,4-tetrahydronaphthalen-1-yl)phenyl)piperidine-4-carbonyl)piperidin-4-yl)-6,7-dihydropyrrolo[3,4-f]isoindole-1,3(2H,5H)-dione] | > 100

The next lines start with the values.

DC50 [nM] | SMILES
10 to 100 | C[C@@H]1Cc2c([nH]c3ccccc23)[C@@H](c2c(F)cc(N3CCC(C(=O)N4CC(CN5Cc6cc7c(cc6C5)C(=O)N(C5CCC(=O)NC5=O)C7=O)C4)CC3)cc2F)N1CC(F)F (stereo partly drawn) [E 234, 6-((1-(1-(4-((1R,3R)-2-(2,2-difluoroethyl)-3-methyl-2,3,4,9-tetrahydro-1H-pyrido[3,4-b]indol-1-yl)-3,5-difluorophenyl)piperidine-4-carbonyl)azetidin-3-yl)methyl)-2-(2,6-dioxopiperidin-3-yl)-6,7-dihydropyrrolo[3,4-f]isoindole-1,3(2H,5H)-dione]
> 100 | C[C@@H]1Cc2c([nH]c3ccccc23)[C@@H](c2c(F)cc(N3CCC(C(=O)N4CC(N5Cc6cc7c(cc6C5)C(=O)N(C5CCC(=O)NC5=O)C7=O)C4)CC3)cc2F)N1CC(F)F (stereo partly drawn) [E 235, 6-(1-(1-(4-((1R,3R)-2-(2,2-difluoroethyl)-3-methyl-2,3,4,9-tetrahydro-1H-pyrido[3,4-b]indol-1-yl)-3,5-difluorophenyl)piperidine-4-carbonyl)azetidin-3-yl)-2-(2,6-dioxopiperidin-3-yl)-6,7-dihydropyrrolo[3,4-f]isoindole-1,3(2H,5H)-dione]
> 100 | C[C@@H]1Cc2c([nH]c3ccccc23)[C@@H](c2c(F)cc(N3CC(C(=O)N4CCC(N5Cc6cc7c(cc6C5)C(=O)N(C5CCC(=O)NC5=O)C7=O)CC4)C3)cc2F)N1CC(F)F (stereo partly drawn) [E 236, 6-(1-(1-(4-((1R,3R)-2-(2,2-difluoroethyl)-3-methyl-2,3,4,9-tetrahydro-1H-pyrido[3,4-b]indol-1-yl)-3,5-difluorophenyl)azetidine-3-carbonyl)piperidin-4-yl)-2-(2,6-dioxopiperidin-3-yl)-6,7-dihydropyrrolo[3,4-f]isoindole-1,3(2H,5H)-dione]

— patent US20240190880A1 (THE REGENTS OF THE UNIVERSITY OF MICHIGAN, priority 2021, published 2024)
